The text below walks through data of patent publication US11345697B1, “Crystalline berberine ascorbate salt, methods of preparation and applications thereof” (Beiture LLC, priority 2020, dated 2022).

The nature of data set [1]: Thermogravimetry analysis (TGA). Conditions: for TGA mass loss: heating from about 25° C. to about 100° C. The format is physicochemical. As to the method: TGA was performed on samples prepared according to standard methods using a Q SERIES™ Q5000 thermogravimetry analyzer available from TA Instruments INSTRUMENTS® (New Castle, Del.). A sample (approximately 5 mg) was placed into an aluminum sample pan and transferred to the TGA furnace. The instrument was purged with nitrogen at 50 mL/min and data collected between 25° C. and 300° C., using a dynamic heating rate of 10° C./minute. Thermal data was analyzed using standard software, e.g., Universal Analysis v.4.5A from TA INSTRUMENTS®.

Data set [2] is described as follows: Hygroscopicity / form stability versus relative humidity. It counts as physicochemical. Conditions: up to 70% relative humidity, without a form change.
How the values of data set [3] were obtained:
50 mg of crystalline berberine ascorbate Form A (from example 1) was suspended in 0.20 ml of water.
50 mg of crystalline berberine chloride dihydrate (from Sigma-Aldrich) was suspended in 10 ml of water. […] The solubility residue was isolated by filtration.
This is another data set of the same source.

For data set [4] the following is noted: cited from earlier work.
For data set [5] the following is noted: 25° C.; AAPS PharmSciTech, 2010, 11(3), 1466-1475; cited from earlier work.

For `CCC(=O)CC1c2c(ccc(OC)c2OC)C=C2c3cc4c(cc3CCN21)OCO4` (stereo not drawn) [berberine methyl ethyl ketone adduct], the melting point is ~ 130 °C. The TGA mass loss in data set [1] came out at 0.4%.
With `COc1ccc2cc3[n+](cc2c1OC)CCc1cc2c(cc1-3)OCO2` [crystalline berberine ascorbate Form A, berberine ascorbate], in data set [2], the hygroscopicity result is recorded as “non-hygroscopic”. Besides, in data set [1] (heated to about 150° C.), the “weight loss in thermal study” value is “no significant weight loss”. In data set [1], the TGA mass loss is on record as 0.4%. In data set [3], the “aqueous solubility, times higher than commercial berberine hydrochloride” value is reported as “more than 50 times” and the solubility in water result is “more than 250 g/L”.
As to `COc1ccc2c(c1OC)C(CC(=O)C(C)C)N1CCc3cc4c(cc3C1=C2)OCO4` (stereo not drawn) [berberine methyl isopropyl ketone adduct], the TGA mass loss in data set [1] is 0.1%.
The same measure, in the same setting: the same measure for `COc1ccc2cc3[n+](cc2c1OC)CCc1cc2c(cc1-3)OCO2` [crystalline berberine ascorbate Form B, berberine ascorbate]: 2.5%; for `COc1ccc2c(c1OC)C(CC(=O)CC(C)C)N1CCc3cc4c(cc3C1=C2)OCO4` (stereo not drawn) [berberine methyl isobutyl ketone adduct]: 0.3%; for `COc1ccc2c(c1OC)C(C1CCCCC1=O)N1CCc3cc4c(cc3C1=C2)OCO4` (stereo not drawn) [berberine cyclohexanone adduct]: 0.3%.
Same read-out and setting: the same measure for `COc1ccc2c(c1OC)C(CC(=O)c1ccccc1)N1CCc3cc4c(cc3C1=C2)OCO4` (stereo not drawn) [berberine methyl phenyl ketone adduct]: 0.3%.
For `COc1ccc2cc3[n+](cc2c1OC)CCc1cc2c(cc1-3)OCO2` [berberine chloride], the loss of water result in data set [4] (elevated temperature or low humidity environment) was “more than 8%”. In addition, in data set [4] (in water or high humidity environment, converts to tetrahydrate form), the uptake of water entry was “about 8%”. For the same compound, in data set [5], the “aqueous solubility (literature value)” value is 1960 ± 110 µg/mL. In addition, in data set [3], the “solid form of solubility residue (powder X-ray pattern)” value is reported as “converted berberine chloride tetrahydrate” and the solubility in water result was “less than 5 g/L”.
Compound `COc1ccc2c(c1OC)C(CC(C)=O)N1CCc3cc4c(cc3C1=C2)OCO4` (stereo not drawn) [crystalline berberine acetone adduct, berberine acetone adduct] displayed a TGA mass loss in data set [1] of 0.3%.
